Data published in article PMC10747602, “Dose Response, Dosimetric, and Metabolic Evaluations of Replacement PFAS Perfluoro-(2,5,8-trimethyl-3,6,9-trioxadodecanoic) Acid (HFPO-TeA)” (Toxics, 2023).
Read-outs that look alike come from different tables or passages of the source.

Test: Liver HFPO-TeA dosimetry
Type: in vivo, Sprague Dawley rats
Conditions: for 5D Liver Conc.: 5 days of exposure, mean ± SD n=4; for concentration at 5 days: Sprague Dawley, rat, liver, oral, wet weight, individual rats, read-out: Liver Conc.
Experimental: Whole blood was collected from the retro-orbital plexus under isoflurane anesthesia 2 h following the first dose and by cardiac puncture 24 h after the last dosage. Blood was stored in anticoagulant potassium ethylenediaminetetraacetic acid (K3EDTA)-coated vacutainers, and then processed to isolate plasma via centrifugation. Animals were euthanized via carbon dioxide asphyxiation and subsequent exsanguination. Liver was collected, weighed, cubed, and divided into three aliquots. One aliquot of tissue was flash-frozen in liquid nitrogen and stored at −80 °C for analytical chemistry analyses. The remaining two aliquots were placed in RNALater and frozen for use in the companion transcriptomic study. Liver and plasma samples were received at the U.S. EPA Center for Computational Toxicology and Exposure, Advanced Analytical Chemistry Methods Branch in Research Triangle Park, North Carolina, USA, and stored at −80 °C prior to extraction.
Information on the chemicals and materials used in the liver plasma HFPO-TeA dosimetry work can be found in Supplementary Text S6 and Table S3. Liver sample preparation was modified from Conley et al.’s work and detailed in Supplementary Text S6 [49]. Briefly, samples were spiked with the internal standard PFHxDA then homogenized in 200 µL of ACN containing 0.1% formic acid. The sample was centrifuged, and the supernatant was transferred. This process was repeated twice more, then stored at −20 °C prior to analysis.
Liver samples were analyzed using the same analytical assessment procedure as the plasma dosimetry samples. Matrix blanks were analyzed with each sample set. HFPO-TeA was not detected in the blanks above the limit of quantitation (LOQ) of 1.58 µM. Statistical analysis is described in Supplementary Text S3, normalization calculations are described in Supplementary Text S5 [47], and the liver-to-plasma partitioning calculation is outlined in Supplementary Text S7 [32, 50, 51].
All in vivo results values are reported as mean ± one standard deviation (SD). Statistical evaluation of in vivo data was conducted using a two-way analysis of variance (ANOVA) and Dunnett’s Test, both at α = 0.05 significance level, on GraphPad Prism v9.5.1.
Support ing Text S4: Plasma Dosimetry Chemicals, Materials, and Analysis Sprague Dawley rodent plasma (pooled, mixed sex) collected with ethylenediaminetetraacetic acid (EDTA) and sterile filtered (0.2 µm) was obtained from BioIVT (Westbury, NY, USA) and stored at -80 °C until use as the control matrix for generating calibration curves and as the matrix blank during plasma sample analysis. The HFPO-TeA (98.97% pure) used for calibration curve preparation was obtained from Oakwood Products Inc. (West Columbia, South Carolina, USA). Unlabeled perfluorohexadecanoic acid (CASRN 67905-19-5 | DTXSID1070800 | PFHxDA; ≥ 98% pure) was obtained from Cambridge Isotope Laboratories (Tewksbury, MA, USA) to serve as the internal standard since a labeled HFPO-TeA standard was not commercially available. […]
Samples were quantitated against matrix-matched calibration curves containing a minimum of 5 points spanning the range 20 – 80,280 ng/mL plasma. Calibrants were prepared by spiking commercial rat plasma (BioIVT) with HFPO-TeA and PFHxDA and then extracted in the same manner as study samples.
Support ing Text S5: Normalization of Dosimetry Data Calculations
Percent dose of HFPO-TeA in plasma was calculated using the observed plasma concentrations and the average plasma volume for Sprague Dawley rats. The density of plasma was then used to convert from mL plasma to grams plasma for ease of comparison to the liver percent dose data. Average percent dose of HFPO-TeA in liver was calculated using the observed liver concentrations and liver weights. These calculations allow for a comparison of the potential saturation of available proteins in […]
Support ing Text S6: Liver Dosimetry Chemicals, Materials, and Analysis […]

## O=C(O)C(F)(OC(F)(F)C(F)(OC(F)(F)C(F)(OC(F)(F)C(F)(F)C(F)(F)F)C(F)(F)F)C(F)(F)F)C(F)(F)F (stereo not shown) [HFPO-TeA, perfluoro-(2,5,8-trimethyl-3,6,9-trioxadodecanoic) acid]
0.9 mg/kg/day, F
  5D Liver Conc.: 14.0 ± 4.3 µM
2.3 mg/kg/day, F
  5D Liver Conc.: 16.5 ± 12.6 µM
2.3 mg/kg/day, M
  5D Liver Conc.: 10.3 ± 7.5 µM
6.3 mg/kg/day, F
  5D Liver Conc.: 86.8 ± 31.7 µM
6.3 mg/kg/day, M
  5D Liver Conc.: 82.7 ± 10.5 µM
17 mg/kg/day, F
  5D Liver Conc.: 250 ± 39 µM
17 mg/kg/day, M
  5D Liver Conc.: 210 ± 85 µM
female, 0.9 mg/kg/day, F
  concentration at 5 days: 9240 ng/g
female, 17 mg/kg/day, F
  concentration at 5 days: 174000 ng/g
male, 6.3 mg/kg/day, M
  concentration at 5 days: 61600 ng/g
